Experimental data taken from patent US6977262B2, “Dihydropyrazolopyridine compounds and pharmaceutical use thereof” (Mitsubishi Pharma Corporation, priority 2001, dated 2005).
Structures can show the parent of a compound that is named as a salt.

| melting point | SMILES |
| --- | --- |
| > 250 °C | N#CC1=C(C2CC2)Nc2n[nH]cc2C1c1ccccc1Cl (stereo not drawn) [Example 266, 4-(2-Chlorophenyl)-5-cyano-6-cyclopropyl-4,7-dihydro-2H-pyrazolo[3,4-b]pyridine] |
| 182 °C | CCCC1=C(C(=O)OCC)C(c2cc(OC)ccc2Cl)c2c[nH]nc2N1 (stereo not drawn) [Example 52, Ethyl 4-(2-chloro-5-methoxyphenyl)-4,7-dihydro-6-propyl-2H-pyrazolo[3,4-b]pyridine-5-carboxylate] |
| 273 °C | N#CC1=C(C2CCCCC2=O)Nc2n[nH]cc2C1c1cccc(C#N)c1Br (stereo not drawn) [Example 1062, 4-(2-Bromo-3-cyanophenyl)-5-cyano-4,7-dihydro-6-(2-oxocyclohexan-1-yl)-2H-pyrazolo[3,4-b]pyridine] |
| 75 to 76 °C | CCCC1=C(C(=O)OCC)C(c2ccccc2Cl)c2cnn(C(C)=O)c2N1 (stereo not drawn) [Example 224, Ethyl 1-acetyl-4-(2-chlorophenyl)-4,7-dihydro-6-propyl-1H-pyrazolo[3,4-b]pyridine-5-carboxylate] |
| 125 °C | CCCC1=C(C(=O)OCC)C(c2sccc2C)c2c[nH]nc2N1 (stereo not drawn) [Example 63, Ethyl 4,7-dihydro-4-(3-methylthiophen-2-yl)-6-propyl-2H-pyrazolo[3,4-b]pyridine-5-carboxylate] |
| > 280 °C | N#CC1=C(c2cccs2)Nc2n[nH]cc2C1c1cccc(C#N)c1Br (stereo not drawn) [Example 278, 4-(2-Bromo-3-cyanophenyl)-5-cyano-4,7-dihydro-6-(thiophen-2-yl)-2H-pyrazolo[3,4-b]pyridine] |
| 247 °C | N#CC1=C(C2CCCC2)Nc2n[nH]cc2C1c1cccc(C#N)c1Br (stereo not drawn) [Example 317, 4-(2-Bromo-3-cyanophenyl)-5-cyano-6-cyclopentyl-4,7-dihydro-2H-pyrazolo[3,4-b]pyridine] |
| 186 °C | COCC1=C(C(=O)OC)C(c2ccccc2OC)c2c[nH]nc2N1 (stereo not drawn) [Example 91, Methyl 4,7-dihydro-6-methoxymethyl-4-(2-methoxyphenyl)-2H-pyrazolo[3,4-b]pyridine-5-carboxylate] |
| 223 °C | CCCC1=C([N+](=O)[O-])C(c2ccccc2OC)c2c[nH]nc2N1 (stereo not drawn) [Example 119, 4,7-Dihydro-4-(2-methoxyphenyl)-5-nitro-6-propyl-2H-pyrazolo[3,4-b]pyridine] |
| 221 °C | N#CC1=C(c2ccccc2)Nc2n[nH]cc2C1c1ccccc1[N+](=O)[O-] (stereo not drawn) [Example 154, 5-Cyano-4,7-dihydro-4-(2-nitrophenyl)-6-phenyl-2H-pyrazolo[3,4-b]pyridine] |
| 220 °C | CCCC1=C(C(=O)OCC)C(c2cccc(Cl)c2Cl)c2c[nH]nc2N1 (stereo not drawn) [Example 44, Ethyl 4-(2,3-dichlorophenyl)-4,7-dihydro-6-propyl-2H-pyrazolo[3,4-b]pyridine-5-carboxylate] |
| 170 °C | CCCC1=C(C#N)[C@H](c2cccc3nonc23)c2c[nH]nc2N1 [Example 140, R(−) 4-(2,1,3-Benzoxadiazol-4-yl)-5-cyano-4,7-dihydro-6-propyl-2H-pyrazolo[3,4-b]pyridine] |
| 108 to 111 °C | CCCC1=C(C(=O)OCC)C(c2ccco2)c2c[nH]nc2N1.O=C(O)/C=C\C(=O)O (stereo not drawn) [Example 59, Ethyl 4-(furan-2-yl)-4,7-dihydro-6-propyl-2H-pyrazolo[3,4-b]pyridine-5-carboxylate maleate] |
| > 270 °C | CN1CCC(C2=C(C#N)C(c3cccc(C#N)c3Br)c3c[nH]nc3N2)CC1 (stereo not drawn) [Example 1038, 4-(2-Bromo-3-cyanophenyl)-5-cyano-4,7-dihydro-6-(1-methylpiperidin-4-yl)-2H-pyrazolo[3,4-b]pyridine] |
| 59 °C | CCCOC(=O)n1cc2c(n1)NC(CCC)=C(C(=O)OCC)C2c1ccccc1Cl (stereo not drawn) [Example 222, Ethyl 4-(2-chlorophenyl)-4,7-dihydro-2-propoxycarbonyl-6-propyl-2H-pyrazolo[3,4-b]pyridine-5-carboxylate] |
| 239 °C | CCCC1=C([N+](=O)[O-])C(c2cccc(Cl)c2Cl)c2c[nH]nc2N1 (stereo not drawn) [Example 122, 4-(2,3-Dichlorophenyl)-4,7-dihydro-5-nitro-6-propyl-2H-pyrazolo[3,4-b]pyridine] |
| > 250 °C | CCCC1=C(C#N)C(c2cccc(C(F)(F)F)c2Cl)c2c[nH]nc2N1 (stereo not drawn) [Example 201, 4-(2-Chloro-3-trifluoromethylphenyl)-5-cyano-4,7-dihydro-6-propyl-2H-pyrazolo[3,4-b]pyridine] |
| > 270 °C | O=C1OCC2=C1C(c1ccccc1Cl)c1c[nH]nc1N2 (stereo not drawn) [Example 96, 4-(2-Chlorophenyl)-2,4,7,8-tetrahydrofurano[3,4-b]pyrazolo[4,3-e]pyridin-5-one] |
| 204 °C | CCCC1=C([N+](=O)[O-])C(c2ccccc2[N+](=O)[O-])c2c[nH]nc2N1 (stereo not drawn) |

| melting point | SMILES |
| --- | --- |
| > 240 °C | N#CC1=C(C2CCCN2)Nc2n[nH]cc2C1c1cccc(C#N)c1Br (stereo not drawn) [Example 1068, 4-(2-Bromo-3-cyanophenyl)-5-cyano-6-(pyrrolidin-2-yl)-4,7-dihydro-2H-pyrazolo[3,4-b]pyridine] |
| 231 °C | CCN1CCC(C2=C(C#N)C(c3cccc4nonc34)c3c[nH]nc3N2)CC1 (stereo not drawn) [Example 1033, 4-(2,1,3-Benzoxadiazol-4-yl)-5-cyano-4,7-dihydro-6-(1-ethylpiperidin-4-yl)-2H-pyrazolo[3,4-b]pyridine] |
| 250 °C | CCCC1=C(C#N)C(c2cccc(C)c2[N+](=O)[O-])c2c[nH]nc2N1 (stereo not drawn) [Example 338, 5-Cyano-4,7-dihydro-4-(3-methyl-2-nitrophenyl)-6-propyl-2H-pyrazolo[3,4-b]pyridine] |
| 233 °C | CN1CC=C(C2=C(C#N)C(c3cccc(C#N)c3Br)c3c[nH]nc3N2)CC1 (stereo not drawn) [Example 1048, 4-(2-Bromo-3-cyanophenyl)-5-cyano-4,7-dihydro-6-(1-methyl-1,2,3,6-tetrahydropyridin-4-yl)-2H-pyrazolo[3,4-b]pyridine] |
| 181 to 183 °C | CCCC1=C(C(=O)OCC)C(c2cccc3c2CCC3)c2c[nH]nc2N1 (stereo not drawn) [Example 103, Ethyl 4,7-dihydro-4-(indan-4-yl)-6-propyl-2H-pyrazolo[3,4-b]pyridine-5-carboxylate] |
| 159 to 161 °C | CCCC1=C(C(=O)OCC)C(c2ccc(Cl)cc2)c2c[nH]nc2N1 (stereo not drawn) [Example 235, Ethyl 4-(4-chlorophenyl)-4,7-dihydro-6-propyl-2H-pyrazolo[3,4-b]pyridine-5-carboxylate] |
| 215 °C | CN(C)CCC1=C(C#N)C(c2cccc3nonc23)c2c[nH]nc2N1 (stereo not drawn) [Example 1019, 4-(2,1,3-Benzoxadiazol-4-yl)-5-cyano-4,7-dihydro-6-(2-(N,N-dimethylamino)ethyl)-2H-pyrazolo[3,4-b]pyridine] |
| 218 to 220 °C | CCCC1=C(C#N)C(c2cccc(C#N)c2Br)c2c[nH]nc2N1C (stereo not drawn) [Example 348, 4-(2-Bromo-3-cyanophenyl)-5-cyano-7-methyl-6-propyl-4,7-dihydro-2H-pyrazolo[3,4-b]pyridine] |
| 200 to 201 °C (dec.) | N#CC1=C(C2CC2)Nc2n[nH]cc2C1c1cccc2nonc12 (stereo not drawn) [Example 269, 4-(2,1,3-Benzoxadiazol-4-yl)-5-cyano-6-cyclopropyl-4,7-dihydro-2H-pyrazolo[3,4-b]pyridine] |
| 235 °C | COC(=O)C1=C(C)Nc2n[nH]cc2C1c1ccccc1Cl (stereo not drawn) [Example 4, Methyl 4-(2-chlorophenyl)-4,7-dihydro-6-methyl-2H-pyrazolo[3,4-b]pyridine-5-carboxylate] |
| 220 °C | COc1cccc(C2=C(C#N)C(c3cccc4nsnc34)c3c[nH]nc3N2)c1 (stereo not drawn) [Example 164, 4-(2,1,3-Benzothiadiazol-4-yl)-5-cyano-4,7-dihydro-6-(3-methoxyphenyl)-2H-pyrazolo[3,4-b]pyridine] |
| 207 °C | CCCC1=C(C(=O)OCC)C(C)(c2ccccc2)c2c[nH]nc2N1 (stereo not drawn) [Example 108, Ethyl 4,7-dihydro-4-methyl-4-phenyl-6-propyl-2H-pyrazolo[3,4-b]pyridine-5-carboxylate] |
| 254 °C | N#CC1=C(c2cccs2)Nc2n[nH]cc2C1c1cccc2nsnc12 (stereo not drawn) [Example 245, 4-(2,1,3-Benzothiadiazol-4-yl)-5-cyano-4,7-dihydro-6-(thiophen-2-yl)-2H-pyrazolo[3,4-b]pyridine] |
| 140 °C | C=CCCC(=O)n1ncc2c1NC(CCC)=C(C#N)C2c1ccccc1Cl (stereo not drawn) [Example 357, 4-(2-Chlorophenyl)-5-cyano-4,7-dihydro-1-(4-pentenoyl)-6-propyl-1H-pyrazolo[3,4-b]pyridine] |
| 174 °C | CN1CCCC(C2=C(C#N)C(c3cccc(C#N)c3Br)c3c[nH]nc3N2)C1 (stereo not drawn) (as salt: trifluoroacetate) [Example 1041, 4-(2-Bromo-3-cyanophenyl)-5-cyano-4,7-dihydro-6-(1-methylpiperidin-3-yl)-2H-pyrazolo[3,4-b]pyridine] |
| 211 °C | CCCC1=C([N+](=O)[O-])C(c2ccccc2SC)c2c[nH]nc2N1 (stereo not drawn) [Example 120, 4,7-Dihydro-4-(2-methylthiophenyl)-5-nitro-6-propyl-2H-pyrazolo[3,4-b]pyridine] |
| 219 to 220 °C | CCCC1=C(C(=O)OCC)C(c2[nH]cnc2C)c2c[nH]nc2N1 (stereo not drawn) [Example 236, Ethyl 4,7-dihydro-4-(4-methyl-1H-imidazol-5-yl)-6-propyl-2H-pyrazolo[3,4-b]pyridine-5-carboxylate] |
| 213 °C | CCOC(=O)C1=C(CC)Nc2n[nH]cc2C1c1ccccc1Cl (stereo not drawn) [Example 82, Ethyl 4-(2-chlorophenyl)-6-ethyl-4,7-dihydro-2H-pyrazolo[3,4-b]pyridine-5-carboxylate] |
| > 260 °C | N#CC1=C(C2CC2)Nc2n[nH]cc2C1c1cccc(N2CCOCC2)c1 (stereo not drawn) [Example 366, 5-Cyano-6-cyclopropyl-4,7-dihydro-4-(3-(morpholin-4-yl)phenyl)-2H-pyrazolo[3,4-b]pyridine] |

| SMILES | melting point |
| --- | --- |
| CC(C)(C)OC(=O)N1CCCC(C2=C(C#N)C(c3cccc(C#N)c3Br)c3c[nH]nc3N2)C1 (stereo not drawn) [Example 1039, 4-(2-Bromo-3-cyanophenyl)-6-(1-t-butoxycarbonylpiperidin-3-yl)-5-cyano-4,7-dihydro-2H-pyrazolo[3,4-b]pyridine] | 238 °C |
